Laboratory results reported in patent publication US7955852B2, “Expansion of renewable stem cell populations” (Gamida Cell Ltd., priority 2002, dated 2011).

Tests used:
[1] = test system: CD34+ cells; experiment: Ex-vivo expansion of CD34+ cell enriched cord blood cultures with cytokines; cell counts and FACS surface antigen analysis; assay type: cell-based, human; conditions: for CD34+ cells per ml: three weeks, SCF, FLt3, IL-6, IL-3, re-selected; for CD34+ (×10^4): 10^−5M
Protocol: Human blood cells were obtained from umbilical cord blood from female patients following full-term, normal delivery (informed consent was obtained).
Samples were collected and processed within 12 hours postpartum. Blood was mixed with 3% Gelatin (Sigma, St. Louis, Mo.), sedimented for 30 minutes to remove most red blood cells. […] The mononuclear cell fraction in the interface layer was collected, washed three times and resuspended in phosphate-buffered saline (PBS) solution (Biological Industries) containing 0.5% bovine serum albumin (BSA, Fraction V; Sigma).
To purify CD34^+ mononuclear cells, the fraction was subjected to two cycles of immuno-magnetic separation using the MiniMACS® or Clinimax® CD34 Progenitor Cell Isolation Kit (Miltenyi Biotec, Auburn, Calif.) as per manufacturer's recommendations.
CD34^+ expressing purified cells above were cultured in 24-well Costar Cell Culture Clusters (Corning Inc., Corning, N.Y.) or culture bags (American Fluoroseal Corp), at a concentration of 10^4 cells/ml in alpha medium (Biological Industries, Beit Haemek, Israel) supplemented with 10% fetal bovine serum (FBS, Biological Industries). The following human recombinant cytokines were added: Thrombopoietin (TPO), interleukin-6 (IL-6), FLT-3 ligand and stem cell factor (SCF), all at final concentrations of 50 ng/ml each, though occasionally IL-3, at a concentration of 20 ng/ml, was added either together or instead of SCF. For non-hematopoietic cell differentiation, FGF, EGF, NGF, VEGF, LIF or Hepatocyte growth factor (HGF) were used to supplement the growth medium, either alone or in various combinations. All cytokines used were purchased from Perpo Tech, Inc. (Rocky Hill, N.J.). The cultures were incubated at 37° C., 5% CO2, in a humidified atmosphere.
At weekly intervals, cell cultures were toped and semi-depopulated and were supplemented with fresh medium, serum and cytokines or supplemented with fresh growth medium, alone. At predetermined time points, cells were harvested, stained with trypan blue, counted, and cell morphology was determined via the use of cytospin (Shandon, UK)-prepared smears stained with May-Grunwald/Giemsa solutions.
CD34^+ purified and whole MNC cultures were prepared and maintained as described above. […] The antagonist was added for a predetermined, limited period, for up to three weeks or continuously during the entire culture period.
Cells were harvested, washed with a PBS solution containing 1% bovine sera albumin (BSA) and 0.1% sodium azide (Sigma), and stained at 4° C. for 60 minutes with fluorescein isothiocyanate or phycoerythrin-conjugated antibodies (all from Immunoquality Products, the Netherlands). The cells were then washed with the same buffer and analyzed by FACS caliber or Facstarplus flow cytometers. Cells were passed at a rate of 1000 cells/second, using saline as the sheath fluid. A 488 nm argon laser beam served as the light source for excitation. Emission of ten thousand cells was measured using logarithmic amplification, and analyzed using CellQuest software. Negative control staining of cells was accomplished with mouse IgG-PE (Dako A/S Glostrup, Denmark) and mouse IgG-FITC (BD Biosciences, Erembodegem, Belgium).
CD34 surface expression on short and long-term cultures initiated either with purified CD34^+ cells or the entire MNC fraction was determined as follows: CD34^+ cells were positively reselected (Miltenyi kit) and counted. Purity was confirmed by subsequent FACS and cell morphology analysis.
Reselected CD34^+ cell subsets were stained for the following combination of antigens: CD34PE/CD38FITC and CD34PE/38, 33, 14, 15, 3, 4, 61, 19 (Lin) FITC. The fraction positive for CD34 and negative for CD38 was defined as CD34^+CD38^−. The fraction positive for CD34 and negative for LIN was defined as CD34^+Lin^− cell fraction.
FACS analysis results are given as percentage values of cells. Absolute numbers of subsets are calculated from the absolute number of CD34^+ cells.

[2] = test system: HL-60 cells; conditions: cited from earlier work
[3] = test system: Lin− c-kit+ Sca-1+ murine hematopoietic precursors; conditions: cited from earlier work
[4] = test system: CD34+ cells; experiment: Colony forming unit (CFU / LTC-CFUc) ability of ex-vivo CD34+ cell cultures; assay type: cell-based, human; conditions: 10^−5M
Protocol: Total cell counts, numbers of CD34^+ cells and subsets, and CFU numbers are presented as cumulative numbers, with the assumption that the cultures had not been passaged; i.e., the number of cells per ml were multiplied by the number of passages performed.
Cells were cloned in semi-solid, methylcellulose-containing medium supplemented with 2 IU/ml erythropoietin (Eprex, Cilag AG Int., Switzerland), stem cell factor and IL-3, both at 20 ng/ml, and G-CSF and GM-CSF, both at 10 ng/ml (all from Perpo Tech). Cultures were incubated for 14 days at 37° C., 5% CO2 in a humidified atmosphere.
Briefly, the ability of the cultures to maintain self-renewal was measured by determination of the content of colony forming unit cells in the long and extended long-term cultures (LTC-CFUc), as described in the references hereinabove.

[5] = TPO, FLT3, IL-6, IL-3, 3 weeks after seeding

CCCOc1cc2c(cc1\C(C)=C/C=C/C(C)=C/C(=O)O)C(C)(C)CCC2(C)C [LGN 100754]
activity on ex vivo expansion of stem/progenitor cells ([1]; 10^−7 M, along with IL-3, 3 and 5 weeks): no activity

NC(=O)c1cccnc1 [Nicotinamide]
CD34+ cells per ml ([1]; 1 mM, TPO): 99 ×10^4 CD34+ cells per ml | CD34+ cells per ml ([1]; 5 mM, TPO): 180 ×10^4 CD34+ cells per ml | CD38 activity and differentiation [2]: inhibited

Cc1ccc(C2=CCC(C)(C)c3ccc(C#Cc4ccc(C(=O)O)cc4)cc32)cc1 [AGN 193109]
increase in the pre-CFU-S population ([3]; cultured for 7 days): approximately 6 fold | short- or long-term repopulating ability ([3]; cultured for 7 days): virtually no short- or long-term repopulating ability

CN1c2ccc([N+](=O)[O-])cc2N=C(c2ccc(C(=O)O)cc2)c2cc3c(cc21)C(C)(C)CCC3(C)C [HX-531, 4-[5H-2,3-(2,5-Dimethyl-2,5-Hexano) 5-Methyl-8-nitrodibenzo [b,e][1,4]diazepin-11-yl) Benzoic acid]
CFU (×10^3), mixed ([4]; 3 weeks after seeding, mixed colonies): (120 mixed) ×10^3 | CFU (×10^3) ([4]; 5 weeks after seeding): 8542 ×10^3 | CFU (×10^3) ([4]; 9 weeks after seeding): 36557 ×10^3 | CFU (×10^3) ([4]; 11 weeks after seeding): 67338 ×10^3 | CFU (×10^3) [4, 5]: 1920 ×10^3 | CD34+ (×10^4) ([1]; 5 weeks after seeding): 1636 ×10^4 | CD34+ (×10^4) ([1]; 9 weeks after seeding): 4977 ×10^4 | CD34+ (×10^4) ([1]; 11 weeks after seeding): 4055 ×10^4 | CD34+ (×10^4) [1, 5]: 167 ×10^4

CC1=C(/C=C/C(C)=C/C=C/C(C)=C/C(=O)O)C(C)(C)CCC1 [ATRA, all-trans-retinoic-acid]
generation of colony-forming cell (CFC) and colony-forming unit-spleen (CFU-S) ([3]; 1 μmol): enhanced
